Measured values published in patent US8642801B2 (BHI Limited Partnership, priority 2003, dated 2014).

target: T1, Aβ1-40 (Homo sapiens, UniProt P05067); assay: MS (electrospray mass spectrometry) binding assay for Aβ40; conditions: Table 3C; 20 μM Aβ peptide, 100 μM compound
T1 construct: most is normally secreted as a 40 (“Aβ1-40”) or 42 (“Aβ1-42”) amino acid peptide
Description: (§1) The ability of a therapeutic compound of the invention to inhibit an interaction between an amyloidogenic protein and a glycoprotein or proteoglycan constituent of a basement membrane can be assessed by an in vitro binding assay, such as that described in U.S. Pat. No. 5,164,295, the contents of which are hereby incorporated by reference. Alternatively, the ability of a compound to bind to an amyloidogenic protein or to inhibit the binding of a basement membrane constituent (e.g., HSPG) to an amyloidogenic protein (e.g., Aβ) can be measured using a mass spectrometry assay where soluble protein, e.g., Aβ, IAPP, β2M is incubated with the compound. A compound which binds to, e.g., Aβ, will induce a change in the mass spectrum of the protein. Exemplary protocols for a mass spectrometry assay employing Aβ and IAPP can be found in the Examples, the results of which are provided in Table 3. The protocol can readily be modified to adjust the sensitivity of the data, e.g., by adjusting the amount of protein and/or compound employed. Thus, e.g., binding might be detected for test compounds noted as not having detectable binding employing less sensitive test protocols.
(§2) The test compounds were synthesized and screened by mass spectrometry (“MS”) assays, except for selected compounds which were purchased from a commercial source. The MS assay gives data on the ability of compounds to bind to proteins, in this example, to β-amyloid and IAPP.
(§3) The pH value of each sample was adjusted to 7.4 (±0.2) by addition of 0.1% aqueous sodium hydroxide. The solutions were then analyzed by electrospray ionization mass spectrometry using a Waters ZQ 4000 mass spectrometer. Samples were introduced by direct infusion at a flow-rate of 25 μL/min within 2 hr. after sample preparation. The source temperature was kept at 70° C. and the cone voltage was 20 V for all the analysis. Data were processed using Masslynx 3.5 software. The MS assay gives data on the ability of compounds to bind to soluble Aβ, whereas the ThT, EM and CD assays give data on inhibition of fibrillogenesis. In Table 3, a blank box means that a value was not determined for that compound in that assay.

T1 sequence (P05067 672-711 limits assumed): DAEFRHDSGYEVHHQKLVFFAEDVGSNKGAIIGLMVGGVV

MS binding Aβ1-40 | Structure (SMILES)
+ (20-39% binding=(+)) | COc1ccc(OC)c(CNCCCS(=O)(=O)O)c1 [JB]
− (<20%=(−)) | C[C@@H]([C@H](O)c1ccccc1)N(C)CCCS(=O)(=O)O [JE]

target: T2, IAPP (Homo sapiens, UniProt P10997); assay: MS (electrospray mass spectrometry) binding assay for IAPP; conditions: Table 3C; 20 μM Aβ peptide, 100 μM compound (so in the source)
T2 construct: which is a 37 amino acid peptide, derived from a larger precursor peptide, called pro-IAPP
T2 sequence (P10997 34-70 limits assumed): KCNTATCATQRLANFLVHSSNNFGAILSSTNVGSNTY
Description: as §1, §2
as §3, with “In the MS assay for Aβ40, samples were prepared as aqueous solutions (adding 20% ethanol if necessary to solubilize in water), 200 μM of a test compound and 20 μM of solubilized Aβ40, or 400 μM of a test compound and 40 μM of solubilized Aβ40. The pH” for “The pH”
The key below describes the codes used in Table 3A to quantify the binding based on the intensity of the absorption.

MS binding IAPP | Structure (SMILES)
+ (20-39% binding=(+)) | COc1ccc(OC)c(CNCCCS(=O)(=O)O)c1 [JB]
++ (40-74% binding=(++)) | C[C@@H]([C@H](O)c1ccccc1)N(C)CCCS(=O)(=O)O [JE]

target: T3, NAC peptide (Homo sapiens, UniProt P37840); assay: Binding to NAC peptide by electrospray mass spectrometry; conditions: 5:1 ratio (20 μM NAC: 100 μM test compound or 40 μM NAC: 200 μM test compound), 6.6% EtOH, pH 7.4; bound complex peak area / unbound NAC peak area
T3 construct: NAC is a 35 amino acid long peptide with highly hydrophobic stretches
Method: The ability of the compounds of the present invention to bind to NAC peptide in aqueous solution was evaluated. The binding ability correlates to the intensities of the peptide-compound complex peaks observed by the Electrospray Mass Spectrum. Millipore distilled deionized water was used to prepare all aqueous solutions. For pH determination a Beckman Φ36 pH meter fitted with a Corning Semi-Micro Combination pH Electrode was employed.
The optimal cone voltage was determined to be 20V.
Mass spectrometry—Mass spectrometric analysis was performed using a Waters ZQ 4000 mass spectrometer equipped with a Waters 2795 sample manager. MassLynx 4.0 (earlier by MassLynx 3.5) was used for data processing and analysis. Test compounds were mixed with disaggregated peptides in aqueous media (6.6% EtOH) at a 5:1 ratio (20 μM NAC: 100 μM of test compound or 40 μM NAC:200 μM of test compound). The pH of the mixture was adjusted to 7.4 (±0.2) using 0.1% NaOH (3-5 μL). Periodically, NAC peptide solution at 20 μM or 40 μM was also prepared in the same fashion and run as control. The spectra were obtained by introducing the solutions to the electrospray source by direct infusion using a syringe pump at a flow rate of 25 μl/min, and scanning from 100 to 2100 Da in the positive mode. The scan time was 0.9 sec per scan with an inter-scan delay of 0.1 sec and the run time was 5 min for each sample. All the mass spectra were sum of 300 scans. The desolvation and source temperature was 70° C. and the cone and capillary voltage were maintained at 20 V and 3.2 kV respectively.
The total area under the peaks for the bound NAC-compound complex divided by total area under the peaks for unbound NAC was determined for each compound tested.

Structure (SMILES) | NAC peptide Binding Strength
O=S(=O)(O)CCCNC1C2CC3CC(C2)CC1C3 (stereo not shown) [drawing 488] | ++ (++ = Moderate; when the total binding is between 120% and 70%)
O=S(=O)([O-])CCCCS(=O)(=O)[O-].[Na+].[Na+] [NaO3SCH2(CH2)2CH2SO3Na] | − (− = None; when the total binding is between 30% and 0%)
NCCCOS(=O)(=O)[O-].[Na+] [H2NCH2CH2CH2OSO3Na] | ++ (++ = Moderate; when the total binding is between 120% and 70%)
CC(C)(C)NCCCS(=O)(=O)O [drawing 487] | ++ (++ = Moderate; when the total binding is between 120% and 70%)
NCCCCS(=O)(=O)O | + (+ = Weak; when the total binding is between 70% and 30%)
NCCOS(=O)(=O)O [NH2CH2CH2OSO3H] | − (− = None; when the total binding is between 30% and 0%)
O=S(=O)([O-])OCCCOS(=O)(=O)[O-].[Na+].[Na+] [NaO3SOCH2CH2CH2OSO3Na] | − (− = None; when the total binding is between 30% and 0%)
O=S(=O)(O)CC(O)CNC1CCCCC1 (stereo not shown) [drawing 490] | +++ (+++ = Strong; when the total binding is 120% and higher)
NCCS(=O)(=O)O [H2NCH2CH2SO3H] | + (+ = Weak; when the total binding is between 70% and 30%)
